These results are taken from patent US8399662B2, “O-acyloxime derivatives, preparation method thereof, and pharmaceutical composition containing the same for prevention and treatment of cardiovascular disease” (Korea Research Institute of Bioscience and Biotechnology, priority 2004, dated 2013).

Data set [1] concerns the target T1, Lp-PLA2 (Homo sapiens, UniProt Q13093).
T1 construct: LDL was isolated from the plasma by discontinuous density gradient ultra centrifugation; from tissue; host or cells: LDL fraction of human blood plasma from normal lipidemic volunteers
T1 sequence (Q13093 22-441): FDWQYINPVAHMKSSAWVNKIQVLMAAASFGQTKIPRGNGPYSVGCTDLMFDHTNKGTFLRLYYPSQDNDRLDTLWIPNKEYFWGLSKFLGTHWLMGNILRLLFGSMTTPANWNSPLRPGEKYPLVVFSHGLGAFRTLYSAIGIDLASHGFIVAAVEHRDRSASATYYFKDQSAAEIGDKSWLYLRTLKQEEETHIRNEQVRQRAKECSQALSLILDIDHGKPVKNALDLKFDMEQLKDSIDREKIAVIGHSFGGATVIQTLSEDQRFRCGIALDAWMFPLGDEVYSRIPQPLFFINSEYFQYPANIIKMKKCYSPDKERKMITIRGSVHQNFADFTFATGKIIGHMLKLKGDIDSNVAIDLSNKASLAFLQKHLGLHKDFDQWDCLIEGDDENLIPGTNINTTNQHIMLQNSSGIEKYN
Nature of the data set: Measurement of Lp-PLA2 (PAF-AH) activity using [3H]PAF substrate and human LDL as enzyme source. It is filed as biochemical. The conditions noted are these: Lp-PLA2 from human LDL, average of two test results, read-out: Inhibition rate at 25 μM.
Experimental: Blood was collected from normal lipidemic volunteers. EDTA was used as anticoagulant (1.5 mg/ml of blood). […] LDL was isolated from the plasma by discontinuous density gradient ultra centrifugation. Briefly, the plasma was centrifuged at 100,000×g at 4° C. for 20 hours. […] The LDL fraction in the top of the tube was collected and dialyzed overnight against three changes of phosphate buffer (pH 7.4), containing NaCl (150 mM), in the dark at 4° C. to remove NaBr and EDTA. The LDL in PBS was stored at 4° C. and used within 4 weeks. The purity of the fraction was confirmed by agarose gel electrophoresis and SDS-PAGE. Concentration of LDL protein was determined using bovine serum albumin (BSA) as a standard.
Lp-PLA2, the enzyme is also known as platelet-activating factor acetylhydrolase (PAF-AH), activity was measured using [^3H]PAF as a substrate. […] The reaction mixture, containing 20 μL of diluted human LDL (Lp-PLA2 source, 4-5 μg protein), 120 μL of PBS-EDTA, and 20 μL of test sample, was preincubated at 37° C. for 15 min. The reaction was initiated by the addition of 40 μL micelle substrate (0.1 μCi, final conc. 80 μM PAF) to measure initial rates of PAF-AH activity. […] The raw counts were corrected for background using a nonenzyme-containing blank and were expressed as nanomoles of PAF degraded per hour per milligram of protein.

Data set [2] can be described thus: in vivo. The conditions noted are these: both, ICR, mouse, in vivo, po. As for the experimental part: (§1) Specific pathogens free ICR mice of 4 weeks old (12 females and 12 males; 3 females and 3 males/dosage group) were raised in an animal chamber controlled with the temperature of 22±3° C., humidity of 55±10%, and illumination of 12L/12D cycle. The mice were acclimated for a week before the test. Feed for a test animal (CJ Corp., for mouse and rat) and water were supplied after sterilization and taken by the mice without any restriction.
(§2) The amount of 0.04 ml (100 mg/kg), 0.2 ml (500 mg/kg), and 0.4 ml (1,000 mg/kg) per mouse weight of 20 g was dosed individually to the mice by oral administration. The samples were dosed only one time, and adverse effect and mortality were observed during 7 days after the dosing as follows.
(§3) Additionally, on seventh day after the administration, the animals were sacrificed and dissected to examine internal organs with naked eye. Weight loss due to (E)-3,4-di-fluorobenzaldehyde O-benzoyloxime or (E)-2,3-di-fluorobenzaldehyde O-morpholine-4-carbonyloxime was observed by measuring weight changes at the intervals of 1 day since the dosage.

Data set [3] deals with ICR mice. Nature of the data set: in vivo. The conditions noted are these: single oral dose up to 1,000 mg/kg, ICR mice, 7 days. As for the experimental part:
as §1, §2, §3

In the case of `O=C(O/N=C(\OC(=O)c1ccccc1)c1ccccc1)c1ccccc1` [Example 16, (E)-1-benzoic acid-benzaldehyde O-benzoyloxime], the inhibition at 25 µM in data set [1] came to 29%.

For `O=C(O/N=C/c1ccc(F)c(F)c1)c1ccccc1` [Example 21, (E)-3,4-di-fluorobenzaldehyde O-benzoyloxime], in data set [2], the median lethal dose (LD50) at 7 days was over 1000 mg/kg.

For the compound `O=C(O/N=C/c1cccc(F)c1F)N1CCOCC1` [Example 30, (E)-2,3-di-fluorobenzaldehyde O-morpholine-4-carbonyloxime], the LD50 at 7 days in data set [2] is over 1000 mg/kg. The “toxicity (clinical symptoms, weight change, blood test, biochemical test of blood, necropsy)” value in data set [3] is “did not show any toxicity”.

Broadly, the inhibition is the share of the control response that was lost under treatment. The LD50 is the dose at which mortality reaches 50%. High values mean lower toxicity, low ones greater toxicity.
